Test results: patent US9284562B2, “Biological circuit chemotactic converters” (Trustees of Boston University, priority 2009, dated 2016)

Tests used:
GFP expression = test: Exemplary SIMM circuit of FIG. 2B, GFP output (FIG. 2C); assay type: cell-based; conditions: inducer added to the exemplary SIMM circuit of FIG. 2B
Excerpt: FIGS. 2A-2C depict an exemplary switch-module (SIMM) for use in the converters described herein and data from the exemplary switch module (SIMM). FIG. 2A depicts an exemplary SIMM comprising a first inducible promoter sequence (P inducible,1) linked to a forward recombinase recognition site (R1RS), an inverted sequence of a second inducible promoter (P inducible,2), a recombinase sequence (Recombinase 1), and a reverse recombinase recognition site (R1RS). Further upstream of the first inducible promoter sequence of the SIMM is an inverted sequence of a constitutively active inducer agent that is specific for the second inducible promoter. Downstream of the reverse recombinase recognition site of the SIMM is an inverted sequence of a third inducible promoter (P inducible,3) and a sequence encoding a dominant negative version of the inducer agent specific for the second inducible promoter. A further component of the exemplary circuit is a sequence of the second inducible promoter operably linked to an output product. In the absence of any inducing agent, constitutive expression of the inducer agent that is specific for the second inducible promoter drives expression from the inducible promoter operably linked to an output product. […]

signaling complex = conditions: read-out: Affinity (Kd) for signaling complex; cited from earlier work
Hin = Hin (Salmonella typhimurium, UniProt P03013); conditions: relative to wild type sites hixL and hixR; cited from earlier work
Hin recombinase = Hin recombinase (Salmonella typhimurium, UniProt P03013); conditions: relative to hixL and hixR; cited from earlier work
Sequence of Hin recombinase (P03013 whole entry): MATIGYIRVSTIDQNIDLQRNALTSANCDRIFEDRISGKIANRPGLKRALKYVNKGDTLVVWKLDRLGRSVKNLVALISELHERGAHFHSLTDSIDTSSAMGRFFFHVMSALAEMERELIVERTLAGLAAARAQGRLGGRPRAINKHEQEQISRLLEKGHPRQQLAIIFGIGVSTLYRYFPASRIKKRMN

Sequence of Hin (P03013 whole entry): as above

CC(C)S[C@@H]1O[C@H](CO)[C@H](O)[C@H](O)[C@H]1O [IPTG, isopropyl β-D-1-thiogalactopyranoside]
Effect on GFP expression of the circuit (GFP expression): restores the circuit to its initial state

Cc1c2c(c(O)c3c(O)cccc13)C(=O)[C@]1(O)C(=O)C(C(N)=O)=C(O)[C@@H](N(C)C)[C@@H]1C2 [anhydrous tetracycline, Anhydrotetracycline]
Effect on GFP expression of the circuit (GFP expression): inhibits GFP expression

Maltose-binding protein
Kd (signaling complex): 250 µM

hixC: composite 26 bp symmetrical hix site, binding site for Salmonella typhimurium Hin recombinase (DNA TTATCAAAAACCATGGTTTTTGATAA; chemistry not given here)
binding affinity for Hin (Hin): higher binding affinity for Hin
fold slower inversion rate than wild type sites hixL and hixR (Hin recombinase): 16 fold
